Results as given in patent publication US20250171461A1, “STIMULATOR OF INTERFERON GENES (STING) MODULATORS, AND COMPOSITIONS AND METHODS THEREOF” (Geode Therapeutics Inc., priority 2022, published 2025).

Biological target: T1, human HAQ STING isoform (hSTING HAQ) (Homo sapiens, UniProt Q86WV6, G230A/H232R/R293Q/R71H)
T1 construct: THP1 cells express the naturally occurring human HAQ STING isoform (hSTING HAQ); host or cells: THP1
Assay: IFN-β mRNA level in THP1 cells (qPCR, STING agonist cellular activity)
Format: cell-based
Details: compound at 3.6 μM, 2 hrs, IFNβ expression normalized against GAPDH by the 2^-ΔΔCT method, DMSO = 1.0
Procedure: Cellular activity of STING agonists was determined by mRNA levels of IFN-β in THP1 (Otwo Biotech HTX1621) cell line. THP1 cells express the naturally occurring human HAQ STING isoform (hSTING HAQ), which responses to the activation of STING agonists.
THP1 cells were seeded into Falcon 12-well cell Culture Plate (Corning #353043) at 9×10^5 cells per well, in 1 ml complete culture medium (RPMI-1640, GIBCO #C1187500BT) containing 10% heat inactivated FBS (GIBCO #10099141C), 1% Pen-Strep (HyClone SV30010) and incubated at 37° ΔC, 5% CO2 overnight. On day 2, compound (final concentration at 3.6 μM) or DMSO (0.1%, Sigma Aldrich #8418) was added to THP1 cells and further incubated for 2 hrs min at 37° ΔC, 5% CO2. Cells were then collected for RNA extraction.
Total RNA was extracted with TRIzol reagent (Invitrogen #15596026) and […] was used to synthesize first-strand cDNA with Maxima First Strand cDNA Synthesis Kit (TAKARA #RR036A). Quantitative PCR was performed with Maxima SYBR Green qPCR Master Mix (ABI #4367659, USA). The primer sequences used were as follows: GAPDH (5′-[…]-3′, 5′-[…]-3′). INFP3 (5′-[…]-3′,5′-[…]-3′) Real-time PCR was performed on QuantStudio™ 5 Real-Time PCR System (Thermo Fisher). Relative expression levels of IFNβ gene were normalized against the level of GAPDH expression by the 2^−ΔΔCT method. Each PCR reaction was performed in triplicates.

T1 sequence (Q86WV6 whole entry R71H/G230A/H232R/R293Q, canonical isoform): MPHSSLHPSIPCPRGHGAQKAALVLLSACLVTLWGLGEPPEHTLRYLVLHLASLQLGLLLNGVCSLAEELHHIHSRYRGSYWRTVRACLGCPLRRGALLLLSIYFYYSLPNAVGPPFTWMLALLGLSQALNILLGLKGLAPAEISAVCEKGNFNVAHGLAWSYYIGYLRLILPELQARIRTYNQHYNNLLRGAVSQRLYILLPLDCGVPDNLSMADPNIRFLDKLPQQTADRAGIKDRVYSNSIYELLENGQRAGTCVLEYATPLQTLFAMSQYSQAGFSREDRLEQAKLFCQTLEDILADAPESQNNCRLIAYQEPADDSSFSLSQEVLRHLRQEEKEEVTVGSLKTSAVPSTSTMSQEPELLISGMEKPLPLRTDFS

SMILES	Relative mRNA INFβ/GAPDH THP 1
COc1cc(CN(Cc2cn3c4c(c(F)c(F)cc4c2=O)OCC3C)[C@H]2CCCN(c3cccnc3)C2)ccn1 (stereo partly drawn) [Compound 22, 9,10-difluoro-6-((((2-methoxypyridin-4-yl)methyl)((S)-1-(pyridin-3-yl)piperidin-3-yl)amino)methyl)-3-methyl-2H-[1,4]oxazino[2,3,4-ij]quinolin-7(3H)-one]	6463.9
COc1cc(CN(Cc2cn3c4c(c(N5CC6(CCNCC6)C5)c(F)cc4c2=O)OCC3C)[C@H]2CCCN(c3ccc(N)nc3)C2)ccn1 (stereo partly drawn) [Compound 24, 6-((((S)-1-(6-aminopyridin-3-yl)piperidin-3-yl)((2-methoxypyridin-4-yl)methyl)amino)methyl)-9-fluoro-3-methyl-10-(2,7-diazaspiro[3.5]nonan-2-yl)-2H-[1,4]oxazino[2,3,4-ij]quinolin-7(3H)-one]	437.3
COc1cc(CN(Cc2cn3c4c(c(N5CCN(Cc6oc(=O)oc6C)CC5)c(F)cc4c2=O)OCC3C)[C@H]2CCCN(c3ccc(N)nc3)C2)ccn1 (stereo partly drawn) [Compound 25, 6-((((S)-1-(6-aminopyridin-3-yl)piperidin-3-yl)((2-methoxypyridin-4-yl)methyl)amino)methyl)-9-fluoro-3-methyl-10-(4-((5-methyl-2-oxo-1,3-dioxol-4-yl)methyl)piperazin-1-yl)-2H-[1,4]oxazino[2,3,4-ij]quinolin-7(3H)-one]	604.8
COc1cc(CN(Cc2cn3c4c(c(N5CCN(CNC(N)=O)CC5)c(F)cc4c2=O)OCC3C)[C@H]2CCCN(c3ccc(N)nc3)C2)ccn1 (stereo partly drawn) [Compound 26, 1-((4-(6-((((S)-1-(6-aminopyridin-3-yl)piperidin-3-yl)((2-methoxypyridin-4-yl)methyl)amino)methyl)-9-fluoro-3-methyl-7-oxo-3,7-dihydro-2H-[1,4]oxazino[2,3,4-ij]quinolin-10-yl)piperazin-1-yl)methyl)urea]	3.5
COc1cc(CN(Cc2cn3c4c(c(N5CCOCC5)c(F)cc4c2=O)OCC3C)[C@H]2CCCN(c3ccc(N)nc3)C2)ccn1 (stereo partly drawn) [Compound 27, 6-((((S)-1-(6-aminopyridin-3-yl)piperidin-3-yl)((2-methoxypyridin-4-yl)methyl)amino)methyl)-9-fluoro-3-methyl-10-morpholino-2H-[1,4]oxazino[2,3,4-ij]quinolin-7(3H)-one]	372.4
COc1cc(CN(Cc2cn3c4c(c(N5CCCCC5)c(F)cc4c2=O)OCC3C)[C@H]2CCCN(c3ccc(N)nc3)C2)ccn1 (stereo partly drawn) [Compound 28, 6-((((S)-1-(6-aminopyridin-3-yl)piperidin-3-yl)((2-methoxypyridin-4-yl)methyl)amino)methyl)-9-fluoro-3-methyl-10-(piperidin-1-yl)-2H-[1,4]oxazino[2,3,4-ij]quinolin-7(3H)-one]	1530.0
COc1cc(CN(Cc2cn3c4c(c(N5CC6(COC6)C5)c(F)cc4c2=O)OCC3C)[C@H]2CCCN(c3ccc(N)nc3)C2)ccn1 (stereo partly drawn) [Compound 30, 6-((((S)-1-(6-aminopyridin-3-yl)piperidin-3-yl)((2-methoxypyridin-4-yl)methyl)amino)methyl)-9-fluoro-3-methyl-10-(2-oxa-6-azaspiro[3.3]heptan-6-yl)-2H-[1,4]oxazino[2,3,4-ij]quinolin-7(3H)-one]	986.1
COc1cc(CN(Cc2cn3c4c(c(N5CCC(O)CC5)c(F)cc4c2=O)OCC3C)[C@H]2CCCN(c3ccc(N)nc3)C2)ccn1 (stereo partly drawn) [Compound 31, 6-((((S)-1-(6-aminopyridin-3-yl)piperidin-3-yl)((2-methoxypyridin-4-yl)methyl)amino)methyl)-9-fluoro-10-(4-hydroxypiperidin-1-yl)-3-methyl-2H-[1,4]oxazino[2,3,4-ij]quinolin-7(3H)-one]	1162.4
COc1cc(CN(Cc2cn3c4c(c(N5CCN(C)C(C)C5)c(F)cc4c2=O)OCC3C)[C@H]2CCCN(c3ccc(N)nc3)C2)ccn1 (stereo partly drawn) [Compound 32, 6-((((S)-1-(6-aminopyridin-3-yl)piperidin-3-yl)((2-methoxypyridin-4-yl)methyl)amino)methyl)-10-(3,4-dimethylpiperazin-1-yl)-9-fluoro-3-methyl-2H-[1,4]oxazino[2,3,4-ij]quinolin-7(3H)-one]	814.9
COc1cc(CN(Cc2cn3c4c(c(N5CCc6ccccc6C5)c(F)cc4c2=O)OCC3C)[C@H]2CCCN(c3ccc(N)nc3)C2)ccn1 (stereo partly drawn) [Compound 33, 6-((((S)-1-(6-aminopyridin-3-yl)piperidin-3-yl)((2-methoxypyridin-4-yl)methyl)amino)methyl)-10-(3,4-dihydroisoquinolin-2(1H)-yl)-9-fluoro-3-methyl-2H-[1,4]oxazino[2,3,4-ij]quinolin-7(3H)-one]	849.2
COc1cc(CN(Cc2cn3c4c(c(N5CCC(N)C5)c(F)cc4c2=O)OCC3C)[C@H]2CCCN(c3ccc(N)nc3)C2)ccn1.Cl (stereo partly drawn) [Compound 34, 6-((((S)-1-(6-aminopyridin-3-yl)piperidin-3-yl)((2-methoxypyridin-4-yl)methyl)amino)methyl)-10-(3-aminopyrrolidin-1-yl)-9-fluoro-3-methyl-2H-[1,4]oxazino[2,3,4-ij]quinolin-7(3H)-one Hydrochloride]	54.8
COc1cc(CN(Cc2cn3c4c(c(N5C[C@@H](C)N[C@@H](C)C5)c(F)cc4c2=O)OCC3C)[C@H]2CCCN(c3ccc(N)nc3)C2)ccn1 (stereo partly drawn) [Compound 35, 6-((((S)-1-(6-aminopyridin-3-yl)piperidin-3-yl)((2-methoxypyridin-4-yl)methyl)amino)methyl)-10-((3S,5R)-3,5-dimethylpiperazin-1-yl)-9-fluoro-3-methyl-2H-[1,4]oxazino[2,3,4-ij]quinolin-7(3H)-one]	3791.8
COc1cc(CN(Cc2cn3c4c(c(N5CCC(N6CCOCC6)CC5)c(F)cc4c2=O)OCC3C)[C@H]2CCCN(c3ccc(N)nc3)C2)ccn1 (stereo partly drawn) [Compound 36, 6-((((S)-1-(6-aminopyridin-3-yl)piperidin-3-yl)((2-methoxypyridin-4-yl)methyl)amino)methyl)-9-fluoro-3-methyl-10-(4-morpholinopiperidin-1-yl)-2H-[1,4]oxazino[2,3,4-ij]quinolin-7(3H)-one]	9395.6
COc1cc(CN(Cc2cn3c4c(c(N5CCCCC5C)c(F)cc4c2=O)OCC3C)[C@H]2CCCN(c3ccc(N)nc3)C2)ccn1 (stereo partly drawn) [Compound 37, 6-((((S)-1-(6-aminopyridin-3-yl)piperidin-3-yl)((2-methoxypyridin-4-yl)methyl)amino)methyl)-9-fluoro-3-methyl-10-(2-methylpiperidin-1-yl)-2H-[1,4]oxazino[2,3,4-ij]quinolin-7(3H)-one]	6829.2
COc1cc(CN(Cc2cn3c4c(c(N5CC(O)C5)c(F)cc4c2=O)OCC3C)[C@H]2CCCN(c3ccc(N)nc3)C2)ccn1 (stereo partly drawn) [Compound 38, 6-((((S)-1-(6-aminopyridin-3-yl)piperidin-3-yl)((2-methoxypyridin-4-yl)methyl)amino)methyl)-9-fluoro-10-(3-hydroxyazetidin-1-yl)-3-methyl-2H-[1,4]oxazino[2,3,4-ij]quinolin-7(3H)-one]	672.0
